From article PMC8795149, “Characterization of a novel non-steroidal glucocorticoid receptor agonist optimized for topical treatment” (Scientific Reports, 2022) come the findings set out here.

One may read the Emax as the maximal effect, on the per cent scale that the assay sets. What is called EC50 is the concentration giving half of the maximal effect. A high value points to a need for much substance.

Holding throughout (assay type): cell-based
One assay relates to GILZ mRNA. As to the kind of experiment: Human skin explant, GILZ gene expression. To be noted: human skin explants, topical, 24 h; for GILZ Relative ED50: weighted geometric mean ± SD. On the procedure: NativeSkin models (NS002) were purchased from Genoskin, France. Human skin samples from abdominal reduction surgery were obtained by Genoskin from donors upon written informed consent. Full ethical approval for the study protocol was obtained from the French ethical research committee (Comité de Protection des Personnes), and authorization was given by the French Ministry of Research. The study was conducted according to the Declaration of Helsinki. 8 mm punch biopsies were excised and embedded in a fibrin-based matrix in transwells and a silicone ring was firmly attached to the surface covering the outer edge of the skin biopsy to prevent lateral diffusion of topically applied formulations. Skin models were cultured in a defined hydrocortisone- and serum-free medium provided by Genoskin.
LEO 134310 and reference glucocorticoids were dissolved in propylene carbonate and tested at 4 concentrations in five- or tenfold titrations. Compounds were applied in duplicates or triplicates on the skin surface (0.5 cm^2) in a volume of 2 µL and incubated for 24 h. Vehicle and untreated samples were included for basal level of expression.
RNA was extracted and qPCR was performed using TaqMan gene expression assays (FKBP5-Hs01561006_m1, TSC22D3 (GILZ)-Hs00608272_m1, TXNIP-Hs01006900_g1, ACTB-Hs99999903_m1, PPIA-Hs99999904_m1, GAPDH-Hs99999905_m1). Gene expression of FKBP5,TSC22D3 (GILZ), and TXNIP was normalized to the geometric mean of the reference genes ACTB, PPIA and GAPDH.
Doses were expressed as compound (API) concentrations (µg/mL) in the applied formulations. Relative upregulation of FKBP5 was estimated as − fold to vehicle treated control. Effective doses (Emax and ED50) were determined from a sigmoid Emax model in Phoenix64 version 8.0, Pharsight, Certara. Mean values and standard deviation of Emax and ED50 were calculated by weighing individual experiments based on the intra- and inter-experiment variability.

In assay [1] the test system is LPS-induced TNF-alpha release in PBMCs. Briefly: TNF-alpha inhibition assay, mouse PBMCs. To be noted: for EC50: geometric mean. As to the method: PMBCs were isolated from human buffy coats or animal whole blood (EDTA-treated). Buffy coats from anonymized healthy adult blood donors were obtained from the Blood Bank of the National University Hospital Copenhagen in accordance with national legislation. Whole blood from mice (obtained from Charles River) was sampled at the animal facility at LEO Pharma and whole blood from pigs was sourced from ScanTox. Test compounds and PBMCs were incubated with 1 µg/ml LPS (Sigma) overnight at 37 °C in HEPES and Glutamax-containing RPMI medium supplemented with either 0.5% human serum albumin (human PBMCs) or 10% fetal bovine serum (mouse and pig PBMCs) and penicillin/streptomycin. TNF-alpha was measured using AlphaLISA (Perkin Elmer).
(§1) IC50 of test compounds was determined by 10-point titrations in duplicates. IC50 values and other parameters were calculated by sigmoidal curve fitting in Assay Explorer.

The next assay deals with T1, GR (Homo sapiens, UniProt P04150).
T1 sequence (P04150 1-777): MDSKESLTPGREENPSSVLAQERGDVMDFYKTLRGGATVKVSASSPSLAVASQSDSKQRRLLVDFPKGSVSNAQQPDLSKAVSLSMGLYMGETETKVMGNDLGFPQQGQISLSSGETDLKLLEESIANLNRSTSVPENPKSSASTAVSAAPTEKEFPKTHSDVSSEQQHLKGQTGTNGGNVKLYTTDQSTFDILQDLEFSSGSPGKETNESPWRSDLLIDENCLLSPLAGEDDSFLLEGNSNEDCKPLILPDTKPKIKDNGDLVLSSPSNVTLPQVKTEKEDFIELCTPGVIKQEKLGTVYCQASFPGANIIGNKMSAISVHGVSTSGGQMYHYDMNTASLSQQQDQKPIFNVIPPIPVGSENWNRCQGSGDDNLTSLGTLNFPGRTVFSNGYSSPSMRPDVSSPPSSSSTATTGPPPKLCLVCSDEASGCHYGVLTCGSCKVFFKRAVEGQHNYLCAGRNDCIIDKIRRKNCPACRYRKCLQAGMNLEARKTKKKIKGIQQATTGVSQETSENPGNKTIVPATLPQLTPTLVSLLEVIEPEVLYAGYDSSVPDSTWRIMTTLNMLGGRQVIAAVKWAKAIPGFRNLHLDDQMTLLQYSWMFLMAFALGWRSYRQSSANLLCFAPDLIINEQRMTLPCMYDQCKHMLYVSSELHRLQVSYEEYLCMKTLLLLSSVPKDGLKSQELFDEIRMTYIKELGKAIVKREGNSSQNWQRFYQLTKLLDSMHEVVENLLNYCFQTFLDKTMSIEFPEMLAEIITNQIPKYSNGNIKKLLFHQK
Briefly: Transactivation assay, MMTV promoter luciferase in HeLa cells. More on the design: endogenous in cells; host or cells: HeLa (ATCC) stably expressing MMP1- or MMTV-promoter luciferase. Conditions: for EC50: 20 h, geometric mean. As to the method:
A HeLa cell line stably expressing luciferase under the control of the mouse mammary tumour virus (MMTV) promoter was generated. When the GR is activated by addition of a GR agonist, it forms a homodimer and binds to the MMTV promoter, t inducing transcription of the luciferase reporter gene. Briefly, cells were incubated with test compounds in culture medium containing charcoal-filtered fetal bovine serum for 20 h 37 °C 5% CO2. Finally, luciferase activity was detected luminometrically after addition of specific substrate to the cells.
as §1

Take `CCCCC(=O)O[C@]1(C(=O)CO)[C@@H](C)C[C@H]2[C@@H]3CCC4=CC(=O)C=C[C@]4(C)[C@@]3(F)[C@@H](O)C[C@@]21C` [BMV, Betamethasone Valerate]: in the assay on GILZ mRNA, the “GILZ Emax” value is recorded as 6.1 ± 3.7 fold to control and the “GILZ Relative ED50” value stood at 5.1 ± 27 µg/mL. In assay [1] (PBMC), the maximum response (Emax) turned out to be 95% and the EC50 came out at 0.22 nM. Moreover, at GR (MMTV promoter, HeLa cells), the maximal effect (Emax) worked out at 120% and the response was half-maximal at 2.6 nM (EC50).
Take `C[C@H](NC(=O)[C@H]1CCCO1)[C@H](Oc1ccc(C(=O)O[C@H]2CCCN(C(=O)[C@H]3COC(=O)C3)C2)cc1)c1ccc(C2CC2)cc1` [LEO 134310]: in the assay on GILZ mRNA, the “GILZ Emax” value is on record as 6.7 ± 2.7^NS fold to control and the “GILZ Relative ED50” value came out at 270 ± 110 µg/mL. In assay [1], the “Inhibition of LPS-induced TNF-alpha release Emax” value is given as 102% and the EC50 was 0.58 nM. Moreover, at GR (MMTV promoter, HeLa cells), the “Transactivation Emax” value stood at 95% and it took 410 nM to reach a half-maximal effect (EC50). Also, at GR (higher concentration than needed for transrepression), the “Transactivation EC50 relative to concentration needed for transrepression” value is listed as “more than 300 fold”.
For `CCC(=O)O[C@]1(C(=O)CCl)[C@@H](C)C[C@H]2[C@@H]3CCC4=CC(=O)C=C[C@]4(C)[C@@]3(F)[C@@H](O)C[C@@]21C` [CP, Clobetasol Propionate], in the assay on GILZ mRNA, the “GILZ Emax” value is recorded as 7.7 ± 2.5^NS fold to control and the “GILZ Relative ED50” value is 1.1 ± 0.25^NS µg/mL. In assay [1] (PBMC), this molecule came in with an Emax of 95% and an EC50 of 0.15 nM. For the same molecule, on GR (MMTV promoter, HeLa cells), the maximal response (Emax) is 110% and the midpoint of the response, the EC50, lay at 0.25 nM.
